Source: the NIST ThermoML archive (doi:10.1016/j.tca.2012.11.015)
Numbers after ± are expanded uncertainties.

Assay: molar heat capacity at constant pressure
Conditions: 101.33 kPa, Crystal, Small sample (50 mg) DSC

[F][Lu]([F])[F] [lutetium(III) fluoride]
Conditions	molar heat capacity at constant pressure [J/K/mol]
399.7 K	96.75 ± 1.9
405.1 K	97.02 ± 1.9
410.5 K	95.88 ± 1.9
415.8 K	95.29 ± 1.9
421.1 K	96.94 ± 1.9
426.3 K	97.01 ± 1.9
431.5 K	96.43 ± 1.9
436.7 K	96.58 ± 1.9
441.9 K	96.64 ± 1.9
447.1 K	96.86 ± 1.9
452.2 K	96.8 ± 1.9
457.3 K	96.65 ± 1.9
462.5 K	95.51 ± 1.9
467.6 K	96.35 ± 1.9
472.6 K	96.98 ± 1.9
477.7 K	97.09 ± 1.9
482.8 K	97.11 ± 1.9
487.8 K	97.26 ± 1.9
492.9 K	97.48 ± 1.9
497.9 K	97.58 ± 1.9
502.9 K	97.68 ± 1.9
508 K	97.97 ± 2
513 K	98.13 ± 2
518 K	98.36 ± 2
523 K	98.49 ± 2
528 K	98.56 ± 2
533.1 K	98.68 ± 2
538.1 K	98.84 ± 2
543.1 K	98.87 ± 2
548.1 K	99.13 ± 2
553.1 K	99.24 ± 2
558.1 K	99.48 ± 2
563.1 K	99.09 ± 2
568.1 K	99.13 ± 2
573.1 K	99.33 ± 2
578.1 K	99.5 ± 2
583.1 K	99.58 ± 2
588 K	99.58 ± 2
593 K	99.6 ± 2
598 K	99.71 ± 2
603 K	99.98 ± 2
608 K	100.29 ± 2
613 K	100.45 ± 2
618 K	100.4 ± 2
623 K	100.24 ± 2
627.9 K	100.69 ± 2
632.9 K	101.13 ± 2
637.9 K	100.84 ± 2
642.9 K	101.01 ± 2
647.9 K	101.38 ± 2
652.9 K	101.53 ± 2
657.9 K	101.67 ± 2
662.8 K	101.64 ± 2
667.8 K	101.51 ± 2
672.8 K	101.61 ± 2
677.8 K	101.89 ± 2
682.8 K	102.02 ± 2
687.8 K	102.07 ± 2
692.8 K	102.12 ± 2
697.7 K	102.26 ± 2
702.7 K	102.44 ± 2
707.7 K	102.41 ± 2
712.7 K	102.81 ± 2.1
717.7 K	102.66 ± 2
722.7 K	102.97 ± 2.1
727.6 K	102.82 ± 2.1
732.6 K	104.53 ± 2.1
737.6 K	104.75 ± 2.1
742.6 K	104.55 ± 2.1
747.6 K	104.86 ± 2.1
752.6 K	105.12 ± 2.1
757.6 K	104.68 ± 2.1
762.6 K	103.97 ± 2.1
767.5 K	102.8 ± 2.1
772.5 K	103.35 ± 2.1
777.5 K	103.53 ± 2.1
782.5 K	103 ± 2.1
787.5 K	103.29 ± 2.1
792.5 K	103.69 ± 2.1
797.5 K	103.87 ± 2.1
802.4 K	103.76 ± 2.1
807.4 K	104.24 ± 2.1
812.4 K	103.94 ± 2.1
817.4 K	104.08 ± 2.1
822.4 K	104.49 ± 2.1
827.4 K	104.53 ± 2.1
832.4 K	104.46 ± 2.1
837.4 K	104.64 ± 2.1
842.3 K	104.66 ± 2.1
847.3 K	104.56 ± 2.1
852.3 K	104.93 ± 2.1
857.3 K	104.87 ± 2.1
862.3 K	104.94 ± 2.1
867.3 K	105.55 ± 2.1
872.3 K	105.31 ± 2.1
877.3 K	105.62 ± 2.1
882.2 K	105.71 ± 2.1
887.2 K	105.77 ± 2.1
892.2 K	105.39 ± 2.1
897.2 K	105.26 ± 2.1
902.2 K	105.24 ± 2.1
907.2 K	105.2 ± 2.1
912.2 K	105.01 ± 2.1
917.2 K	103.22 ± 2.1
922.2 K	101.86 ± 2
927.1 K	101.4 ± 2
932.1 K	101.32 ± 2
937.1 K	102.01 ± 2
942.1 K	103.86 ± 2.1
947.1 K	104.24 ± 2.1
952.1 K	104.41 ± 2.1
957.1 K	104.36 ± 2.1
962.1 K	105.18 ± 2.1
967.1 K	105.18 ± 2.1
972.1 K	104.61 ± 2.1
977 K	104.97 ± 2.1
982 K	105.26 ± 2.1
987 K	104.58 ± 2.1
992 K	104.27 ± 2.1
997 K	104.7 ± 2.1
1002 K	104.37 ± 2.1
1007 K	105.57 ± 2.1
1012 K	107.7 ± 2.1
1017 K	107.28 ± 2.1
1022 K	106.62 ± 2.1
1027 K	106.36 ± 2.1
1031.9 K	106.14 ± 2.1
1036.9 K	106.21 ± 2.1
1041.9 K	106.18 ± 2.1
1046.9 K	106.45 ± 2.1
1051.9 K	105.23 ± 2.1
1056.9 K	104.62 ± 2.1
1061.9 K	103.86 ± 2.1
1066.9 K	102.81 ± 2.1
1071.9 K	104.66 ± 2.1
1076.9 K	107.09 ± 2.1
1081.9 K	107.68 ± 2.1
1086.9 K	108.09 ± 2.2
1091.9 K	108.21 ± 2.2
1096.9 K	108.47 ± 2.2
1101.9 K	108.65 ± 2.2
1106.9 K	108.92 ± 2.2
1111.9 K	108.53 ± 2.2
1116.9 K	109.02 ± 2.2
1121.9 K	108.84 ± 2.2
1126.9 K	109.6 ± 2.2
1131.9 K	109.55 ± 2.2
1136.9 K	109.42 ± 2.2
1141.8 K	108.84 ± 2.2
1146.8 K	109.13 ± 2.2
1151.8 K	109.39 ± 2.2
1156.8 K	108.91 ± 2.2
1161.8 K	108.91 ± 2.2
1166.8 K	109.26 ± 2.2
1171.8 K	109.47 ± 2.2
1176.8 K	109.96 ± 2.2
1181.8 K	108.7 ± 2.2
1186.8 K	107.48 ± 2.1
1191.8 K	106.02 ± 2.1
1196.8 K	104.98 ± 2.1
1201.8 K	104.23 ± 2.1
1206.8 K	104.19 ± 2.1
1211.8 K	107.96 ± 2.2
